From patent publication EP0395099B1 (priority 1989, dated 1990)
Where two headings read alike, the source gives them in different places.

Test system: Staphylococcus aureus strain FRI-1169
Assay: microbe, parasite or virus in culture
Type: cell-based
Conditions: for inhibition at 0.1 % / inhibition at 0.5 % / inhibition at 1 % / inhibition at 10 %: Staphylococcus aureus; for inhibition at 0.1 %: FRI1169, read-out: Reduction in TSST-1 Formation, Example 11: test tampon comprising 0.1% fatty acid ester; for inhibition at 0.5 %: FRI1169, read-out: Reduction in TSST-1 Formation, Example 11: test tampon comprising 0.5% fatty acid ester; for inhibition at 10 %: FRI1169, read-out: Reduction in TSST-1 Formation, Example 11: test tampon comprising 10% fatty acid ester
[1] = Example 11: test tampon comprising 0.1% fatty acid ester
[2] = Example 11: test tampon comprising 0.5% fatty acid ester
[3] = Example 11: test tampon comprising 1.0% fatty acid ester
[4] = Example 11: test tampon comprising 10% fatty acid ester
[5] = FRI1169, read-out: Reduction in TSST-1 Formation, Example 11: test tampon comprising 1.0% fatty acid ester
[6] = Example 8: test tampon comprising 1% by weight of the ester, 24 hours at 37°C
[7] = Example 8: test tampon comprising 1% by weight of the ester, 24 hours at 37°C, ELISA
[8] = FRI1169, read-out: REDUCTION IN TSST-1 FORMATION, Example 8: test tampon comprising 1% by weight of the ester, vs untreated control tampon

| Compound | Log of Final Concn. of S. aureus [1] | Total Amount TSST-1 Produced [1] | Log of Final Concn. of S. aureus [2] | Total Amount TSST-1 Produced [2] | Log of Final Concn. of S. aureus [3] | Total Amount TSST-1 Produced [3] | Log of Final Concn. of S. aureus [4] | Total Amount TSST-1 Produced [4] | inhibition at 0.1 % [%] | inhibition at 0.5 % [%] | inhibition at 1 % [5] [%] | inhibition at 10 % [%] | FINAL CONCENTRATION OF S. AUREUS CELLS, log to the base 10 [6] | Total Amount TSST-1 Produced [7] | inhibition at 1 % [8] [%] |
| --- | --- | --- | --- | --- | --- | --- | --- | --- | --- | --- | --- | --- | --- | --- | --- |
| CCCCCCCCCCCC(=O)OCC(C)O (stereo not drawn) [Tampon 1, 2-Hydroxy-1-propyl laurate] | 9.1 /ml | 7.93 »g | 7.64 /ml | 1.25 »g | 8.79 /ml | 0.09 »g | 8.37 /ml | 0.05 »g | ~7 | 85 | ~99 | 99 |  |  |  |
| CCCCCCCCCCCC(=O)OCCOCCO [Tampon 2, Diethylene glycol monolaurate] | 8.45 /ml | 0.12 »g | 7.40 /ml | 0.01 »g | 6.13 /ml | 0.01 »g | 7.42 /ml | 0.11 »g | 99 | 99 | ~99 | 99 |  |  |  |
| CCCCCCCCCCCC(=O)OCC(O)CO (stereo not drawn) [Tampon No. 2, Glyceryl monolaurate] |  |  |  |  |  |  |  |  |  |  |  |  | 6.81 /ml | 0.14 »g | 99.1 |
| CCCCCCCCCCCCCC(=O)OCC(O)CO (stereo not drawn) [Tampon No. 3, Glyceryl monomyristate] |  |  |  |  |  |  |  |  |  |  |  |  | 8.70 /ml | 0.58 »g | 96.6 |
| CCCCCCCCCCCCCCCC(=O)OCC(O)CO (stereo not drawn) [Tampon No. 4, Glyceryl monopalmitate] |  |  |  |  |  |  |  |  |  |  |  |  | 9.15 /ml | 1.75 »g | 89.7 |
| CCCCCCCCCCCCCCCCCC(=O)OCC(O)CO (stereo not drawn) [Tampon No. 5, Glyceryl monostearate] |  |  |  |  |  |  |  |  |  |  |  |  | 8.78 /ml | 6.43 »g | 60 |
| CCCCCCCC/C=C\CCCCCCCC(=O)OCC(O)CO (stereo not drawn) [Tampon No. 6, Glyceryl monooleate] |  |  |  |  |  |  |  |  |  |  |  |  | 8.83 /ml | 1.01 »g | 94.1 |
